Measurements reported in ChEMBL document CHEMBL5303304, “EUbOPEN Chemogenomics Library - IncuCyte” (2023).

Columns and labels:
Format in all cases: toxicity, cell-based
[1] = tested on: HEK-293T; test: Incucyte cell viability with HEK293T; conditions: human, 10 µM, compound concentration 10 uM
[2] = tested on: Fibroblast; test: Incucyte cell viability with human fibroblast; conditions: 10 µM, compound concentration 10 uM
[3] = tested on: U2OS; test: Incucyte cell viability with U2OS; conditions: human, 10 µM, compound concentration 10 uM
Also: unitless GR value; below 1 slowed growth and below 0 cell loss.

SMILES | Growth Rate ([1]; 0 h, replicate number 2) | Growth Rate ([1]; 6 h, replicate number 2) | Growth Rate ([2]; 6 h, replicate number 2) | Growth Rate ([2]; 12 h, replicate number 2) | Growth Rate ([2]; 18 h, replicate number 1) | Growth Rate ([2]; 18 h, replicate number 2) | Growth Rate ([3]; 0 h, replicate number 1) | Growth Rate ([3]; 24 h, replicate number 2) | Growth Rate ([1]; 6 h, replicate number 1) | Growth Rate ([1]; 12 h, replicate number 1) | Growth Rate ([1]; 18 h, replicate number 1) | Growth Rate ([1]; 24 h, replicate number 1) | Growth Rate ([2]; 6 h, replicate number 1) | Growth Rate ([2]; 12 h, replicate number 1) | Growth Rate ([3]; 6 h, replicate number 2) | Growth Rate ([3]; 12 h, replicate number 2) | Growth Rate ([3]; 18 h, replicate number 2) | Growth Rate ([2]; 0 h, replicate number 1) | Growth Rate ([2]; 24 h, replicate number 2) | Growth Rate ([3]; 24 h, replicate number 1) | other results
CC(C)c1cc(Br)c(NC(=O)Nc2cccnc2)c(Br)c1 | 0.91 | 0.84 | -0.99 | 0.73 | -0.82 | 0.89 | -0.34 | 0.98 | – | – | – | – | – | – | – | – | – | – | – | – | –
CC(C)Oc1ccc(-c2cnc3c(-c4ccnc5ccccc45)cnn3c2)cc1 | 0.99 | – | – | – | 0.49 | – | -0.36 | 0.97 | -0.63 | -0.46 | -0.07 | 0.3 | 0.72 | -1 | 0.23 | 0.74 | 0.79 | – | – | – | Growth Rate ([2]; 0 h, replicate number 2): -0.98
COc1cc(NC(=O)c2ccc(-c3ccc(Cl)cc3)o2)cc(OC)c1 | 0.52 | – | -1 | 0.03 | 0.5 | 0.54 | 0.66 | 0.79 | 0.31 | – | – | – | – | – | 0.2 | 0.72 | 0.89 | 0.51 | 0.45 | 0.98 | –
Cc1cc(-c2nncc3c(C(C)(C)C)c(OCc4ncnn4C)nn23)no1 | 0.72 | 0.78 | -0.97 | 0.98 | 0.1 | 0.78 | – | 0.86 | 0.14 | 0.35 | 0.1 | 0.14 | 1 | – | 0.23 | 0.67 | 0.71 | -0.5 | 0.87 | 0.93 | Growth Rate ([1]; 12 h, replicate number 2): 0.53; Growth Rate ([1]; 18 h, replicate number 2): 0.57; Growth Rate ([1]; 24 h, replicate number 2): 0.61; Growth Rate ([2]; 24 h, replicate number 1): 0.26; Growth Rate ([3]; 0 h, replicate number 2): -0.99; Growth Rate ([3]; 6 h, replicate number 1): 0.85; Growth Rate ([3]; 18 h, replicate number 1): 0.82
COCCNc1cc(NC(=O)N2CCCc3cc(CN4CCOCC4=O)c(C=O)nc32)ncc1C#N | 0.81 | – | -1 | 0.58 | -0.07 | – | -0.03 | – | 0.42 | – | – | – | 0.86 | -1 | – | – | – | – | 0.95 | – | Growth Rate ([2]; 24 h, replicate number 1): 0.7; Growth Rate ([3]; 6 h, replicate number 1): 0.95
Cn1c(=O)n(CCCO)c(=O)c2c1nc(Oc1cccc(Cl)c1)n2Cc1ccc(Cl)cc1 | 0.3 | 0.26 | -0.99 | 0.66 | 0.33 | – | – | 0.89 | – | – | – | – | – | – | – | 0.93 | 0.82 | – | 0.85 | 0.94 | Growth Rate ([1]; 12 h, replicate number 2): 0.77; Growth Rate ([1]; 18 h, replicate number 2): 0.84; Growth Rate ([1]; 24 h, replicate number 2): 0.83; Growth Rate ([3]; 6 h, replicate number 1): 0.38; Growth Rate ([3]; 18 h, replicate number 1): 0.86
CC[C@](C)(O)C#Cc1cc2c(ccn2-c2cc(OC)nc(N)n2)cn1 | 0.37 | 0.55 | – | – | 0.63 | – | – | – | -0.14 | 0.4 | 0.76 | 0.84 | -0.12 | -1 | – | – | – | -0.3 | 0.83 | – | Growth Rate ([3]; 0 h, replicate number 2): -0.28
